Reference: patent publication US8362256B2, “Salts of N-[4-(1-cyanocyclopentyl)phenyl]-2-(4-pyridylmethyl)amino-3-pyridinecarboxamide” (Jiangsu Hengrui Medicine Co. Ltd., priority 2008, dated 2013)
Marks after values point to notes of the source that are not given here.

Test system: human colon cancer Ls174t
Assay: Efficacy on human colon cancer Ls174t transplanted in nude mice
Conditions: for Weight after Removing Tumor, d0 / TV x ± SD, d0: d0 baseline; for RTV x ± SD / T/C / TV x ± SD, dn: dn 14 days; for Weight after Removing Tumor, dn: dn 14 days after first administration
Procedure: BALB/cA-nude mice, ♀, 5-6 weeks-old, available from Shanghai Slaccas experimental animals limited liability company. […] Rearing environment: SPF grade.
After one week adaption, the experimental animals were subcutaneously inoculated with human colon cancer Ls174t tumor tissues. When the tumors grew to 100-300 mm^3, the animals were randomly divided into several groups in day 0 (d0). […] The volumes of tumors and the weights of mice were measured 2-3 times every week, the data of which were recorded. The equation for the calculation of volume of tumors (V) is: V=½×a×b^2 wherein a and b represent length and width, respectively.

[1] = 50 mg/kg p.o. once daily d0-d13
[2] = 100 mg/kg p.o. once daily d0-d13
[3] = 200 mg/kg p.o. once daily d0-d13

## N#CC1(c2ccc(NC(=O)c3cccnc3NCc3ccncc3)cc2)CCCC1 [Mesylate of compound A]
[1]
  Weight after Removing Tumor, d0: 19.1 g
  RTV x ± SD: 9.8 ± 3.0
  T/C: 79.7%
  TV x ± SD, dn: 1452 ± 149
  Weight after Removing Tumor, dn: 16.8 g
50 mg/kg p.o.
  TV x ± SD, d0: 155 ± 33
[2]
  Weight after Removing Tumor, d0: 19.0 g
  RTV x ± SD: 6.4 ± 3.1
  T/C: 52.0^a %
  TV x ± SD, dn: 931 ± 196
  Weight after Removing Tumor, dn: 18.5 g
100 mg/kg p.o.
  TV x ± SD, d0: 161 ± 44
[3]
  Weight after Removing Tumor, d0: 18.6 g
  RTV x ± SD: 2.0 ± 0.9
  TV x ± SD, dn: 310 ± 114
  Weight after Removing Tumor, dn: 18.5 g
200 mg/kg p.o. once daily d0-d13, listed as Mesylate of Compound A
  T/C: 16.3^a %
200 mg/kg p.o. once daily d0-d13, listed as mesylate of compound A
  T/C: 16.3%
200 mg/kg p.o.
  TV x ± SD, d0: 158 ± 20
400 mg/kg
  efficacy at 400 mg/kg: did not increase significantly
Mus musculus, LS174T, read-out: ED50 on colon cancer Ls174t
  ED50: 97.2 mg/kg
mouse, in vivo
  tolerance at 400 mg/kg: could be tolerated by mice
